Test results as given in patent US7674795B2, “Fluorene derivatives, composition containing said derivatives and the use thereof” (Aventis Pharma SA, priority 2005, dated 2010).

How the values were obtained:
Hsp82 = Hsp82 (Saccharomyces cerevisiae, UniProt P02829); assay: PK/LDH enzyme coupling test of the ATPase activity of Hsp82 (NADH decrease at 340 nm); assay type: biochemical; settings: 1 μM Hsp82, 250 μM ATP, 37° C., pyruvate kinase/lactate dehydrogenase coupling, read-out: Hsp82 ATPase IC50
Sequence of Hsp82 (P02829 whole entry): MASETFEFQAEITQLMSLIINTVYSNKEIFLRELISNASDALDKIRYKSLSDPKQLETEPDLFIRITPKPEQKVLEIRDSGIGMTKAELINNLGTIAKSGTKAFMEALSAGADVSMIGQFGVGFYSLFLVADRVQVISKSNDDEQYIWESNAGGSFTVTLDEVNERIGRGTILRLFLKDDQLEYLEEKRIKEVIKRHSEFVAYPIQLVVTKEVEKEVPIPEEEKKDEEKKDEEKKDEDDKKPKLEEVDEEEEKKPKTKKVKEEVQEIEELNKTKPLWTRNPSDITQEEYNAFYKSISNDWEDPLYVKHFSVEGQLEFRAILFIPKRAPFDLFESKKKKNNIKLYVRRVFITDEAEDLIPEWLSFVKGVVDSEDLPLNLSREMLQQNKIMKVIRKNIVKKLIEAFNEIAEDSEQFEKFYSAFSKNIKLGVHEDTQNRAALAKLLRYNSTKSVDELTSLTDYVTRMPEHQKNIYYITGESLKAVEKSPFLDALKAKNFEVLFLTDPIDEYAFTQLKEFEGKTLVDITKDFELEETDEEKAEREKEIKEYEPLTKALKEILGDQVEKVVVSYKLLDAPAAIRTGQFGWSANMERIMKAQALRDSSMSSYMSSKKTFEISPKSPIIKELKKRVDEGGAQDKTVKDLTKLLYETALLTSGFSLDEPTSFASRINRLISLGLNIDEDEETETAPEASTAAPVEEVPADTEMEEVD
How it was run: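 Yeast Hsp82 ATPase was coupled to PK/LDH, with ADP formation followed continuously as NADH loss at 340 nm at 37 °C. The mixture was preincubated 30 min at 37 °C, and the reaction was started with compound at variable concentrations plus Hsp82 at 1 μM. Initial rates (μM ADP/min) came from the tangent slope at origin, expressed as % inhibition.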

| IC50 (Hsp82) | melting point | SMILES |
| --- | --- | --- |
| 1 to 10 µM | 204 °C (dec.) | Cn1cc(C(=O)NC2c3ccccc3-c3c(-c4nc5ccncc5[nH]4)cccc32)c2cccnc21 (racemic) [Example 101, [4-(3H-imidazo[4,5-c]pyridin-2-yl)-9H-fluoren-9(R,S)-yl]amide of 1-methyl-1H-pyrrolo[2,3-b]pyridine-3-carboxylic acid] |
| – | 194 °C | COc1ccc(C(=O)NC2c3ccccc3-c3c(-c4nc5ccncc5[nH]4)cccc32)cc1 (racemic) [Example 127, N-[4-(3H-imidazo[4,5-c]pyridin-2-yl)-9H-fluoren-9(R,S)-yl]-4-methoxybenzamide] |
| 10 to 100 µM | 170 to 172 °C | NC1c2ccccc2-c2c(-c3nc4ccc(F)cc4[nH]3)cccc21 (racemic) [Example 71, 4-(6-fluoro-1H-benzimidazol-2-yl)-9H-fluoren-9(R,S)-ylamine] |
| 1 to 10 µM | 236 to 238 °C | O=C1c2ccccc2-c2c1cccc2-c1nc2cnccc2[nH]1 [Example 1, 4-(3H-imidazo[4,5-c]pyridin-2-yl)-fluoren-9-one] |
| < 1 µM | 225 °C (dec.) | O=C(NC1c2ccccc2-c2c(-c3nc4ccncc4[nH]3)cccc21)c1c[nH]c2ncccc12 (racemic) [Example 99, [4-(3H-imidazo[4,5-c]pyridin-2-yl)-9H-fluoren(R,S)-9-yl]amide of 1H-pyrrolo[2,3-b]pyridine-3-carboxylic acid] |
| < 1 µM | 254 to 258 °C (dec.) | O=C(NC1c2ccccc2-c2c(-c3nc4cnccc4[nH]3)cccc21)c1cccc2ncccc12 (racemic) [Example 14, [4-(3H-imidazo[4,5-c]pyridin-2-yl)-9H-fluoren-9(R,S)-yl]amide of quinoline-5-carboxylic acid] |
| < 1 µM | 230 to 235 °C | O=C(NC1c2ccccc2-c2c(-c3nc4ccncc4[nH]3)cccc21)c1cccc2[nH]ncc12 (racemic) [Example 111, [4-(3H-imidazo[4,5-c]pyridin-2-yl)-9H-fluoren-9(R,S)-yl]amide of 1H-indazole-4-carboxylic acid] |
| 1 to 10 µM | – | CNc1cc(C(=O)NC2c3ccccc3-c3c(-c4nc5ccncc5[nH]4)cccc32)ccn1 (racemic) [Example 116, N-[4-(3H-imidazo[4,5-c]pyridin-2-yl)-9H-fluoren-9(R,S)-yl]-2-methylamino-isonicotinamide] |
| 10 to 100 µM | – | O=C(NCc1ccc(F)cc1)NC1c2ccccc2-c2c(-c3nc4ccncc4[nH]3)cccc21 (racemic) [Example 75, 1-(4-fluorobenzyl)-3-[4-(3H-imidazo[4,5-c]pyridin-2-yl)-9H-fluoren-9(R,S)-yl]-urea] |
| 10 to 100 µM | – | ON=C1c2ccccc2-c2c1cccc2-c1nc2ccc(O)cc2[nH]1 (racemic) [Example 107, 4-(6-hydroxy-1H-benzimidazol-2-yl)-fluoren-9-one oxime (Z,E)] |
| 1 to 10 µM | 250 °C | Cc1cc(C(=O)NC2c3ccccc3-c3c(-c4nc5ccncc5[nH]4)cccc32)cc(Cl)n1 (racemic) [Example 123, 2-chloro-N-[4-(3H-imidazo[4,5-c]pyridin-2-yl)-9H-fluoren-9(R,S)-yl]-6-methyl-isonicotinamide] |
| 10 to 100 µM | – | O=C(N[C@H]1c2ccccc2-c2c(-c3nc4ccncc4[nH]3)cccc21)c1cccc2ncccc12 (single isomer, unassigned) [Example 14B] |
| 10 to 100 µM | – | OC1c2ccccc2-c2c(-c3nc4cnccc4[nH]3)cccc21 (racemic) [Example 3, 4-(3H-imidazo[4,5-c]pyridin-2-yl)-9H-fluoren-9(R,S)-ol] |
| 10 to 100 µM | – | O=C(NC1c2ccccc2-c2c(-c3nc4ccccc4[nH]3)cccc21)c1cccc2ncccc12 (racemic) [Example 83, [4-(1H-benzimidazol-2-yl)-9H-fluoren-9(R,S)-yl]amide of quinoline-5-carboxylic acid] |
| 10 to 100 µM | – | O=C(NC1c2ccccc2-c2c(-c3nc4ccncc4[nH]3)cccc21)c1ccc2[nH]c(=O)[nH]c2c1 (racemic) [Example 43, [4-(3H-imidazo[4,5-c]pyridin-2-yl)-9H-fluoren-9(R,S)-yl]amide of 2-oxo-2,3-dihydro-1H-benzimidazole-5-carboxylic acid] |
| 1 to 10 µM | – | O=C(NC1c2ccccc2-c2c(-c3nc4ccncc4[nH]3)cccc21)c1ccc2cc[nH]c2c1 (racemic) [Example 46, [4-(3H-imidazo[4,5-c]pyridin-2-yl)-9H-fluoren-9(R,S)-yl]amide of 1H-indole-6-carboxylic acid] |
| 1 to 10 µM | – | Cc1cnccc1C(=O)NC1c2ccccc2-c2c(-c3nc4ccncc4[nH]3)cccc21 (racemic) [Example 96, N-[4-(3H-imidazo[4,5-c]pyridin-2-yl)-9H-fluoren-9(R,S)-yl]-3-methyl-isonicotinamide] |
| 1 to 10 µM | – | O=C(Cc1cccnc1)NC1c2ccccc2-c2c(-c3nc4cnccc4[nH]3)cccc21 (racemic) [Example 21, N-[4-(3H-imidazo[4,5-c]pyridin-2-yl)-9H-fluoren-9(R,S)-yl]-2-(pyridin-3-yl)-acetamide] |
| 1 to 10 µM | – | CC(C)(C)OC(=O)N[C@H](CC(N)=O)C(=O)NC1c2ccccc2-c2c(-c3nc4cnccc4[nH]3)cccc21 (stereo partly drawn) [Example 61, tert-butyl ester of {(R)-2-carbamoyl-1-[4-(3H-imidazo[4,5-c]pyridin-2-yl)-9H-fluoren-9(R,S)-ylcarbamoyl]-ethyl}-carbamoic acid] |
| 1 to 10 µM | – | ON=C1c2ccccc2-c2c1cccc2-c1nc2ccc(F)cc2[nH]1 (racemic) [Example 70, 4-(6-fluoro-1H-benzimidazol-2-yl)-fluoren-9-one oxime (Z,E)] |
| 1 to 10 µM | – | O=C(NC1c2ccccc2-c2c(-c3nc4ccncc4[nH]3)cccc21)c1cccnc1 (racemic) [Example 48, N-[4-(3H-imidazo[4,5-c]pyridin-2-yl)-9H-fluoren-9(R,S)-yl]-nicotinamide] |
| 10 to 100 µM | – | C[C@@H](C(=O)N[C@@H]1c2ccccc2-c2c(-c3nc4ccncc4[nH]3)cccc21)c1cccnc1 (racemic) [Example 100, N-[4-(3H-imidazo[4,5-c]pyridin-2-yl)-9H-fluoren-9(R,S)-yl]-2(R,S)-(pyridin-3-yl)-propionamide] |
